Measurements as given in US20250204515A1, “Heparanase Inhibition for Graft Protection” (University of Pittsburgh - Of the Commonwealth System of …, priority 2022, published 2025).

System: MMP-2
Test: Gelatin zymography of EVLP perfusate, inhibitors in perfusate
Set-up: species or system rat
Conditions: 4 hours EVLP, vs SF4 and control groups
Description: Gelatin zymography: Gelatin zymography was performed to measure secreted MMP-2 and MMP-9 activities in EVLP perfusate. Briefly, 20 μl of perfusate was mixed with 2×SDS sample buffer then loaded onto a 10% polyacrylamide gel containing 0.1% SDS and […]. After protein separation by electrophoresis, the gel was washed in renaturing buffer (Novex™ Invitrogen™) at room temperature, and then incubated in developing buffer (Novex™ Invitrogen™) overnight at 37° C. The next day, the gel was stained with Coomassie Brilliant Blue R-250 (Bio-Rad) and imaged (ChemiDoc, Bio-Rad). Enzyme activity, visualized as clear bands against the dark blue background, was quantified using Image-J (NIH).

Substance: heparin
- MMP-2 activity in EVLP perfusate: significantly elevated
